From patent US10745377B2, “Piperidine or piperazine linked imidazole and triazole derivatives and methods of use” (MERCK SHARP & DOHME CORP., priority 2013, dated 2020)

Experiments:
Type in all cases: biochemical
CYP2C9 = target: T1, CYP2C9 (Homo sapiens, UniProt P11712); assay: Cocktail assay for CYPs in human liver microsomes: CYP2C9 (diclofenac 4′-hydroxylation); details: human liver microsomes 0.1 mg/mL, 5 μM diclofenac, 10 min at 37° C., 6 concentrations up to 10 μM; read-out: IC50 (nM) CYP2C9
T1 construct: 0.1 mg/mL protein human liver microsomes (BD Gentest); tissue BD Gentest; host or cells: human liver microsomes

CYP3A4 = target: T2, CYP3A4 (Homo sapiens, UniProt P08684); assay: Cocktail assay for CYPs in human liver microsomes: CYP3A4 (midazolam 1′-hydroxylation); details: human liver microsomes 0.1 mg/mL, 2 μM midazolam, 10 min at 37° C., 6 concentrations up to 10 μM; read-out: IC50 (nM) CYP3A4
T2 construct: 0.1 mg/mL protein human liver microsomes (BD Gentest); tissue BD Gentest; host or cells: human liver microsomes

CYP1A2 = target: T3, CYP1A2 (Homo sapiens, UniProt P05177); assay: Cocktail assay for CYPs in human liver microsomes: CYP1A2 (phenacetin O-deethylation); details: human liver microsomes 0.1 mg/mL, 10 μM phenacetin, 10 min at 37° C., 6 concentrations up to 10 μM; read-out: IC50 (nM) CYP1A2
T3 construct: 0.1 mg/mL protein human liver microsomes (BD Gentest); tissue BD Gentest; host or cells: human liver microsomes
T3 sequence (P05177 1-516): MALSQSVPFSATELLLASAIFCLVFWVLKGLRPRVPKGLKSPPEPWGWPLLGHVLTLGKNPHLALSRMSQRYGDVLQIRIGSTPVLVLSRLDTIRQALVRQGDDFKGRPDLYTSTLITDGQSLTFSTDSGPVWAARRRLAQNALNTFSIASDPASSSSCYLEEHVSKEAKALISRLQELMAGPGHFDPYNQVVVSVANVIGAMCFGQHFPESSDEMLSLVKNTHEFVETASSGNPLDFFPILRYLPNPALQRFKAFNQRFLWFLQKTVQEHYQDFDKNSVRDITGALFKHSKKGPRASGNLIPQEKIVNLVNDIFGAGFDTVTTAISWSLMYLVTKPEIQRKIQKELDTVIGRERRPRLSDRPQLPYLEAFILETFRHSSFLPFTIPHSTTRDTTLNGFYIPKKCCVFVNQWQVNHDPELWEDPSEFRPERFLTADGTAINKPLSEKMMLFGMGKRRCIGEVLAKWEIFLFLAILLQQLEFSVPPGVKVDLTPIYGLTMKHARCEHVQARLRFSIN

CYP2C19 = target: T4, CYP2C19 (Homo sapiens, UniProt P33261); assay: Cocktail assay for CYPs in human liver microsomes: CYP2C19 (mephenytoin 4′-hydroxylation); details: human liver microsomes 0.1 mg/mL, 30 μM mephenytoin, 10 min at 37° C., 6 concentrations up to 10 μM; read-out: IC50 (nM) CYP2C19
T4 construct: 0.1 mg/mL protein human liver microsomes (BD Gentest); tissue BD Gentest; host or cells: human liver microsomes

CYP2D6 = target: T5, CYP2D6 (Homo sapiens, UniProt P10635); assay: Cocktail assay for CYPs in human liver microsomes: CYP2D6 (dextromethorphan O-demethylation); details: human liver microsomes 0.1 mg/mL, 5 μM dextromethorphan, 10 min at 37° C., 6 concentrations up to 10 μM; read-out: IC50 (nM) CYP2D6
T5 construct: 0.1 mg/mL protein human liver microsomes (BD Gentest); tissue BD Gentest; host or cells: human liver microsomes
T5 sequence (P10635 whole entry): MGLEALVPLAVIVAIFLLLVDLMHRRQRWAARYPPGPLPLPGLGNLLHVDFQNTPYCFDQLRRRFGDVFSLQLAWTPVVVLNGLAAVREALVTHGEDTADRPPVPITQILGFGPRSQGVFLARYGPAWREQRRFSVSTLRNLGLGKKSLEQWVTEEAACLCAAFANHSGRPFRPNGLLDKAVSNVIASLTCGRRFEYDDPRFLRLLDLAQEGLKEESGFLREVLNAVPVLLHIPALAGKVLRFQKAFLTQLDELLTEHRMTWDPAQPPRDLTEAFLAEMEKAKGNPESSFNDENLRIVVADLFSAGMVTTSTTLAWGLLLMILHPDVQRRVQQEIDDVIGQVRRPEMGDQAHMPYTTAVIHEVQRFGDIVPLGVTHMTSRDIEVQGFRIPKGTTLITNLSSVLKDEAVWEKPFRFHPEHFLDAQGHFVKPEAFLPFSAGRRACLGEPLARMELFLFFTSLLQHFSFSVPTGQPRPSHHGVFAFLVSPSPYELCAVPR

T4 sequence (P33261 whole entry): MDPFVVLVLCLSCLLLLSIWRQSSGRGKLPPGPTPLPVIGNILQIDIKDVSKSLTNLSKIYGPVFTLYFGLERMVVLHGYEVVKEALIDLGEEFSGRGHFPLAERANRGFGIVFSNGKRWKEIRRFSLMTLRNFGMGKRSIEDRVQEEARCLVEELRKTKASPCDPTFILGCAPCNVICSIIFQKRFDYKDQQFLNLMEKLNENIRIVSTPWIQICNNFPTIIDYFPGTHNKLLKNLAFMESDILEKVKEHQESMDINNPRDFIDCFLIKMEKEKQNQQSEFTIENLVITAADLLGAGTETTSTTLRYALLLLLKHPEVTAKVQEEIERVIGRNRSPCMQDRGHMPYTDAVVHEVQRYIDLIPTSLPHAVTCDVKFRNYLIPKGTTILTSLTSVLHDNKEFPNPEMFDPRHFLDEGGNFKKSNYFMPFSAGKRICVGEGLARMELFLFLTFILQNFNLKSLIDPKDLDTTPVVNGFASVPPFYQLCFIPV
T1 sequence (P11712 whole entry): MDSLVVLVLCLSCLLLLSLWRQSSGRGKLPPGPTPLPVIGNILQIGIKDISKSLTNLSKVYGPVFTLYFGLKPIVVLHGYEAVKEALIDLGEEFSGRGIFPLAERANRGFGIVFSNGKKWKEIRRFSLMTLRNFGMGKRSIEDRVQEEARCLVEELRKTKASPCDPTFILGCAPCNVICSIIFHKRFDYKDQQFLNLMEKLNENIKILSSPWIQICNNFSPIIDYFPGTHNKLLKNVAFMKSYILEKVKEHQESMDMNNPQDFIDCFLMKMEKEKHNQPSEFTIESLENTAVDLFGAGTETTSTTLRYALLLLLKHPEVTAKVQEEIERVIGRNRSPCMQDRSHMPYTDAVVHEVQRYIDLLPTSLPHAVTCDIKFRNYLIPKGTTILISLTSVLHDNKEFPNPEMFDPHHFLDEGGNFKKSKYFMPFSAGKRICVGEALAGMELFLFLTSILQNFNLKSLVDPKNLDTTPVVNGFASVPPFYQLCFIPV
T2 sequence (P08684 whole entry): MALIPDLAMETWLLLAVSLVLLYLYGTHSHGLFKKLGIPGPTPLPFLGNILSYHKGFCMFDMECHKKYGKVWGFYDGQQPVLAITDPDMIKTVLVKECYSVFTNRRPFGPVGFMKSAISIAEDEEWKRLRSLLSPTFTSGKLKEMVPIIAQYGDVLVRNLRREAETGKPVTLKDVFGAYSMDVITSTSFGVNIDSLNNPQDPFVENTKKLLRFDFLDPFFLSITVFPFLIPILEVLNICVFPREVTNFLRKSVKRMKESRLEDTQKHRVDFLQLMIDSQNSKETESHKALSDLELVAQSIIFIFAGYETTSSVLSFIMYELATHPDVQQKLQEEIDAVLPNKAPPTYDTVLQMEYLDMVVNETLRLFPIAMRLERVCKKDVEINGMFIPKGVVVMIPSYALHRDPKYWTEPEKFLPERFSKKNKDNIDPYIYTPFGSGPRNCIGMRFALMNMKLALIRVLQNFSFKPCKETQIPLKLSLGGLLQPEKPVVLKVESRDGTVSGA

Row | IC50 (CYP2C9) | IC50 (CYP3A4) | IC50 (CYP1A2) | IC50 (CYP2C19) | IC50 (CYP2D6) | Structure (SMILES)
1 | 6120 nM | 13 nM | > 10000 nM | > 10000 nM | 9840 nM | C[C@H](c1ccc(F)cc1)n1cncc1CN1CCN(C(=O)c2ccccn2)C(c2ccccc2)C1 (stereo partly shown) [Compound 53]
2 | 2860 nM | 14 nM | > 10000 nM | 3350 nM | > 10000 nM | CC1CN(Cc2cncn2[C@H](C)c2ccc(F)cc2)CC(C)N1C(=O)C1(C)CC1 (stereo partly drawn) [Compound 54, (4-((1-((R)-1-(4-fluorophenyl)ethyl)-1H-imidazol-5-yl)methyl)-2,6-dimethylpiperazin-1-yl)(1-methylcyclopropyl) methanone]
3 | 2970 nM | 10 nM | > 10000 nM | 2390 nM | 8030 nM | C[C@H](c1ccc(F)cc1)n1cncc1CN1CCN(C(=O)c2ccccc2)C(C(C)(C)C)C1 (stereo partly drawn) [Compound 55, (2-(tert-butyl)-4-((1-((R)-1-(4-fluorophenyl)ethyl)-1H-imidazol-5-yl)methyl)piperazin-1-yl)(phenyl) methanone]
4 | > 10000 nM | 35 nM | > 10000 nM | > 10000 nM | 7160 nM | CC1CN(Cc2cncn2C(C)C2CCOCC2)CC(C)N1C(=O)C1(C)CC1 (stereo not shown) [Compound 56, (2,6-dimethyl-4-((1-(1-(tetrahydro-2H-pyran-4-yl)ethyl)-1H-imidazol-5-yl)methyl)piperazin-1-yl)(1-methylcyclopropyl) methanone]
5 | 2810 nM | 5 nM | > 10000 nM | 2640 nM | 2450 nM | C[C@H](c1ccc(F)cc1)n1cncc1CN1CCN(C(=O)C2(C)CC2)C(c2ccc(N(C)C)cc2)C1 (stereo partly drawn) [Compound 57, (2-(4-(dimethylamino)phenyl)-4-((1-((R)-1-(4-fluorophenyl)ethyl)-1H-imidazol-5-yl)methyl)piperazin-1-yl)(1-methylcyclopropyl) methanone]
6 | 2570 nM | 7 nM | > 10000 nM | > 10000 nM | > 10000 nM | CC1CN(Cc2cncn2[C@H](C)c2ccc(C#N)cc2)CC(C)N1C(=O)C1CC(F)(F)C1 (stereo partly drawn) [Compound 58, 4-((1R)-1-(5-((4-(3,3-difluorocyclo-butanecarbonyl)-3,5-dimethylpiperazin-1-yl)methyl)-1H-imidazol-1-yl)ethyl)benzonitrile]
7 | 6480 nM | 9 nM | > 10000 nM | 3360 nM | 2210 nM | CC(c1ccccc1-c1ccc(F)cc1)n1cncc1CN1CCN(C(=O)c2ccccc2)CC1 (stereo not shown) [Compound 59, (4-((1-(1-(4′-fluoro-[1,1′-biphenyl]-2-yl)ethyl)-1H-imidazol-5-yl)methyl)piperazin-1-yl)(phenyl) methanone]
8 | > 10000 nM | 23 nM | > 10000 nM | > 10000 nM | 4500 nM | CC(=O)N1CCN(Cc2cncn2C(C)c2ccccc2-c2ccc(F)cc2)CC1 (stereo not shown) [Compound 60, 1-(4-((1-(1-(4′-fluoro-[1,1′-biphenyl]-2-yl)ethyl)-1H-imidazol-5-yl)methyl)piperazin-1-yl)ethanone]
9 | > 10000 nM | 23 nM | > 10000 nM | 1620 nM | 2520 nM | C[C@H](c1ccc(F)cc1)n1cncc1CN1CCN(Cc2ccccc2)C(=O)C1 [Compound 61, (R)-1-benzyl-4-((1-(1-(4-fluorophenyl)ethyl)-1H-imidazol-5-yl)methyl)piperazin-2-one]
10 | 6210 nM | 43 nM | 6940 nM | 1140 nM | 5640 nM | C[C@H](c1ccc(F)cc1)n1cncc1CN1CCN(Cc2ccccc2Cn2cncn2)C(=O)C1 [Compound 62, (R)-1-(2-((1H-1,2,4-triazol-1-yl)methyl)benzyl)-4-((1-(1-(4-fluorophenyl)ethyl)-1H-imidazol-5-yl)methyl) piperazin-2-one]
11 | > 10000 nM | 46 nM | ≥ 10000 nM | > 10000 nM | > 10000 nM | C[C@H](c1ccc(F)cc1)n1cncc1CN1CCN(Cc2cn3ccccc3n2)C(=O)C1 [Compound 63, (R)-4-((1-(1-(4-fluorophenyl)ethyl)-1H-imidazol-5-yl)methyl)-1-(imidazo[1,2-a]pyridin-2-ylmethyl)piperazin-2-one]
12 | 2860 nM | 43 nM | 3590 nM | 4520 nM | 3110 nM | COc1ccc(-c2nc(CN3CCN(Cc4cncn4[C@H](C)c4ccc(F)cc4)CC3=O)no2)cc1 [Compound 64, (R)-4-((1-(1-(4-fluorophenyl)ethyl)-1H-imidazol-5-yl)methyl)-1-((5-(4-methoxyphenyl)-1,2,4-oxadiazol-3-yl)methyl) piperazin-2-one]
13 | 8780 nM | 10 nM | > 10000 nM | 1340 nM | 3360 nM | COc1ccc(CNc2ncc(CN3CCN(Cc4cncn4[C@H](C)c4ccc(F)cc4)CC3=O)s2)c(OC)c1 [Compound 65, (R)-1-((2-((2,4-dimethoxybenzyl)amino)thiazol-5-yl)methyl)-4-((1-(1-(4-fluorophenyl)ethyl)-1H-imidazol-5-yl)methyl)piperazin-2-one]
14 | > 10000 nM | 43 nM | > 10000 nM | > 10000 nM | > 10000 nM | C[C@H](c1ccc(F)cc1)n1cncc1CN1CCN(Cc2cnc(N(C)C)s2)C(=O)C1 [Compound 66, (R)-1-((2-(dimethylamino)thiazol-5-yl)methyl)-4-((1-(1-(4-fluorophenyl)ethyl)-1H-imidazol-5-yl)methyl) piperazin-2-one]
15 | > 10000 nM | 75 nM | > 10000 nM | > 10000 nM | > 10000 nM | CNc1ncc(CN2CCN(Cc3cncn3[C@H](C)c3ccc(F)cc3)CC2=O)s1 [Compound 67, (R)-4-((1-(1-(4-fluorophenyl)ethyl)-1H-imidazol-5-yl)methyl)-1-((2-(methylamino)thiazol-5-yl)methyl) piperazin-2-one]
16 | > 10000 nM | 80 nM | > 10000 nM | > 10000 nM | > 10000 nM | C[C@H](c1ccc(F)cc1)n1cncc1CN1CCN(Cc2cnc(N3CCOCC3)s2)C(=O)C1 [Compound 68, (R)-4-((1-(1-(4-fluorophenyl)ethyl)-1H-imidazol-5-yl)methyl)-1-((2-morpholinothiazol-5-yl)methyl)piperazin-2-one]
17 | > 10000 nM | 56 nM | > 10000 nM | > 10000 nM | > 10000 nM | C[C@H](c1ccc(F)cc1)n1cncc1CN1CCN(Cc2cnc(N3CCN(C)CC3)s2)C(=O)C1 [Compound 69, (R)-4-((1-(1-(4-fluorophenyl)ethyl)-1H-imidazol-5-yl)methyl)-1-((2-(4-methylpiperazin-1-yl)thiazol-5-yl)methyl) piperazin-2-one]
18 | > 10000 nM | 15 nM | > 10000 nM | 5950 nM | 7680 nM | CCOC(=O)CN1CCN(Cc2cncn2C(C)c2ccccc2-c2ccc(F)cc2)CC1 (stereo not shown) [Compound 70, ethyl 2-(4-((1-(1-(4′-fluoro-[1,1′-biphenyl]-2-yl)ethyl)-1H-imidazol-5-yl)methyl)piperazin-1-yl)acetate]
19 | > 10000 nM | 37 nM | > 10000 nM | > 10000 nM | > 10000 nM | CC(c1ccccc1-c1ccc(F)cc1)n1cncc1CN1CCN(CCO)CC1 (stereo not shown) [Compound 71, 2-(4-((1-(1-(4′-fluoro-[1,1′-biphenyl]-2-yl)ethyl)-1H-imidazol-5-yl)methyl)piperazin-1-yl) ethanol]
20 | > 10000 nM | 14 nM | > 10000 nM | > 10000 nM | 1170 nM | COCCN1CCN(Cc2cncn2C(C)c2ccccc2-c2ccc(F)cc2)CC1 (stereo not shown) [Compound 72, 1-((1-(1-(4′-fluoro-[1,1′-biphenyl]-2-yl)ethyl)-1H-imidazol-5-yl)methyl)-4-(2-methoxyethyl) piperazine]
